The source of these data is patent publication US12390472B2 (SUZHOU SINOVENT PHARMACEUTICALS CO., LTD., priority 2018, dated 2025).

Data set [1] has as its target EZH2 (Y641N) (Homo sapiens (Human), UniProt Q15910, Y641N). Nature of the data set: Test on EZH2 (Y641N) inhibitory activity. In kind it is biochemical.
Protocol: (§1) Compounds at different concentrations were dissolved in 100% DMSO and transferred to test plates, and the final concentration of DMSO was 1%. Enzyme solution and substrate SAM solution were prepared with 1-fold reaction buffer (optimized Tris buffer). 5 uL of enzyme solution was added to the test plate and wells only added with 5 uL of reaction buffer were used as negative control wells. After incubation at room temperature for 15 min, the plate was added with 5 uL of substrate solution per well to initiate the reaction, and then incubated at room temperature for 60 min. 5 uL of receptor solution was added and the plate was incubated away from light at room temperature for 60 min. 10 uL of donor solution was added and the plate was incubated away from light at room temperature for 30 min. The endpoint values were read on the Envision and the IC50 was calculated.
(§2) Data were fitted by GraphPad Prism 5 software and inhibition rate was calculated according to equation (1) Inh %=(Max−Signal)/(Max−Min)×100 (1)
(§3) IC50 was calculated using equation (2) Y=Bottom+(Top−Bottom)/(1+10^((Log IC50−X)×Hill Slope))
(§4) Y: inhibition rate; X: concentration of the compound
For data set [2], the target named is EZH2 (Y641F) (Homo sapiens (Human), UniProt Q15910, Y641F). Nature of the data set: Test on EZH2 (Y641F) inhibitory activity. In kind it is biochemical.
Protocol: as §1, §2, §3, §4
Data set [3] concerns the target EZH2 (wt) (Homo sapiens (Human), UniProt Q15910). Nature of the data set: Test on EZH2 (wt) inhibitory activity ([3H]-SAM Flashplate). In kind it is biochemical.
Protocol: Protocols Compounds at different concentrations were dissolved in 100% DMSO and transferred to test plates, and the final concentration of DMSO was 1%. The enzyme solution and the mixture solution of peptide and [3H]-SAM were prepared with 1-fold reaction buffer. 10 uL of enzyme solution was added to the test plate and wells only added with 10 uL of reaction buffer were used as negative control wells. After incubation at room temperature for 15 min, the plate was added with 10 uL of the mixture solution of peptide and [3H]-SAM per well to initiate the reaction which lasts for 60 min at room temperature. The pre-cooled SAM was added to 1-fold reaction buffer to prepare a stop buffer. The reaction was stopped by adding 10 uL of stop buffer per well. 25 uL of solution was transferred from the reaction plate to Flashplate and incubated at room temperature for at least 1 h. The Flashplate was washed 3 times with dH2O+0.1% Tween-20. The plate was read by Microbeta.
as §2, §3, §4
Data set [4] in a line: In vivo pharmacokinetic properties in mice. On the set-up: species or system mouse; Cmax: unit: ng/mL. The conditions noted are these: male ICR mice; for F: intragastric 250 mg/kg vs intravenous 5 mg/kg. As for the experimental part:
Male ICR mice were divided into different groups with 3 mice in each group, and single intravenous injection and single intragastric administration were conducted respectively. The compounds were formulated with 10% DMSO/90% (20% Captisol) to reach an appropriate concentration and then administered intravenously at 5 mg/kg. The compounds were formulated with 0.5% CMC-Na/0.1% Tween 80 (pH=3-4) to reach an appropriate concentration and then administered intragastrically at 250 mg/kg. Blood was taken at 5 min, 15 min, 30 min, 1 h, 2 h, 4 h, 6 h, 8 h and 24 h after administration, and then subjected to EDTA-K2 anticoagulation. The concentration of the compound in the plasma was quantitatively detected by an LC-MS/MS method.

The test system of data set [5] is WSU-DLCL2 cells. Nature of the data set: Experiment on WSU-DLCL2 cell proliferation (Calcein-AM). In kind it is cell-based. As for the experimental part: WSU-DLCL2 cells were plated in a 96-well plate and 100 uL of cells (a density of 1×10^5 cells/mL) and 50 uL of compound stock at 3-fold concentration was added to each well, and the final volume was 150 uL/well. After 6 days of culturing, on day 7, the cells in the well plate were mixed well by pipetting, and 50 uL of the cell suspension was pipetted to be tested for cell viability using Calcein-AM. 50 uL of the cell suspension was added to a 96-well plate coated by poly-D-Lysine, and then 50 uL of HBSS containing 2 uM Calcein-AM was added to make the final concentration of Calcein-AM 1 uM. After incubation for 10 min at room temperature, the cells were rapidly centrifuged to be deposited on the bottom of the plate. The cells were cultured in the incubator for another 40 min and then the plate was read on Acumen.
The remaining cells were diluted and then plated in a 96-well plate, and 100 uL of cells and 50 uL of a compound at 3-fold concentration were added to each well for further culturing until day 14, and the cell viability was detected as described above. The IC50 was calculated.

Data set [6] relates to Pfeiffer cells. Briefly: Experiment on Pfeiffer cell proliferation (CellTiter-Glo). In kind it is cell-based, human. As for the experimental part:
90 uL of cells were added to each well of a 96-well plate at 12000 cells/well, and cell-free culture medium was added to blank control wells. The plate was incubated overnight in an incubator at 37° C., 5% CO2 and 100% relative humidity. The compounds were diluted from highest to lowest concentration gradient with DMSO to make stock solutions at 400-fold and 10-fold concentration. 10 μL of 10× compound working solution was added to the cell culture plate, and the total concentration of the compound was detected from 10 μM, 9 concentration points in total, and 3-fold serial dilution was performed. 10 μL of DMSO-cell culture medium mixture solution was added to the vehicle control wells and blank control wells. The final concentration of DMSO was 0.25%. The plate was put back in the incubator for another 7 days of culturing.
The cell culture plate cultured for 7 days was taken out of the incubator, and the suspended cells in the 96-well plate were mixed well by pipetting multiple times. 74 uL of fresh cell culture medium was added to a new 96-well plate, and 16 uL of cell suspension was pipetted from the 96-well plate with cells mixed well by pipetting into the new 96-well plate to bring the total volume to 90 uL. Cells in the new 96-well plate were treated with the compound. The new 96-well plate was put back in the incubator for another 7 days of culturing, and then cell viability was detected directly.
84 μL of cell suspension was taken from the cell culture plate for cell viability detection.
CellTiter-Glo buffer and substrate were thawed and balanced to room temperature. The CellTiter-Glo buffer was added to a bottle of CellTiter-Glo substrate to dissolve the substrate, thereby preparing CellTiter-Glo working solution. The bottle was subjected to slow vortex shaking to completely dissolve the substrate. The cell culture plate was taken out and balanced to room temperature for 30 min. 50 μL of CellTiter-Glo working solution was added to each well. The cell plate was wrapped with aluminum foil to keep out of light. The plate was shaken on an orbital shaker for 2 min to induce cell lysis. The plate was placed at room temperature for 10 min to stabilize the luminescence signals. The luminescence signals were detected on 2104 En Vision plate reader.
Inhibition rates of compounds at different concentrations were calculated in Excel, followed by plotting the inhibition curves and calculating relevant parameters including minimum (%), maximum (%), and absolute IC50 using GraphPad Prism software.
(In general: ATP-based viability assays read luminescence as a measure of living cells.)

Data set [7] concerns subcutaneous xenograft tumor model of human B lymphocyte Pfeiffer. Briefly: In vivo efficacy in subcutaneous xenograft tumor model of human B lymphocyte Pfeiffer. On the set-up: species or system mouse. As to conditions: SCID Beige mice, tumor volume 21 days after administration. As for the experimental part: Human B lymphocyte strain Pfeiffer was cultured in vitro, in a monolayer way, in a RPMI-1640 medium containing 10% fetal bovine serum, 100 U/mL penicillin and 100 μg/mL streptomycin in an incubator at 37° C./5% CO2. Conventional medium refreshment and subculturing were carried out twice a week, and cells in logarithmic growth phase were collected and used for tumor inoculation after being counted.
Female SCID Beige mice, aged 6-8 weeks and weighed 18-22 g were used in the experiment. The experiment started after 7-day adaptive feed.
Each mouse was inoculated subcutaneously with 10×10^6 Pfeiffer cells in a volume of 0.2 mL in the right side of the neck. The cells were suspended with PBS and matrigel (volume ratio 1:1). After the average tumor volume reached 130 mm^3, the mice were divided into groups with 8 mice per group for administration. The administration volume was 10 uL/g and the dose was 100 mg/kg if there's no special labeling ((p.o. administration, QD, continuous administration for 21 days).
Animal body weights were measured twice weekly and animal mortality and side effects within each group were recorded based on the number of animals in the group.
The experimental indices were to investigate whether tumor growth was inhibited or delayed or the tumor was cured. Tumor diameters were measured twice weekly using a vernier caliper. The tumor volume was calculated according to the following formula: V=0.5 a×b^2, where a and b represent the long diameter and short diameter of the tumor, respectively. The tumor growth inhibitions (TGIs) of the compounds were evaluated by T/C (%). The percentage value of T/C (%) is an index for reflecting the tumor growth inhibition, where T and C represent the average tumor volume of the administration group and the control group, respectively, at a certain day.
The tumor growth inhibition rate was calculated according to the following formula: TGI (%)=(1−(Ti−T0)/(Vi−V0))×100, where Ti is the average tumor volume of a certain administration group on a certain day, T0 is the average tumor volume of the administration group at the start of administration, Vi is the average tumor volume of the vehicle control group on a certain day (same day as Ti) and V0 is the average tumor volume of the vehicle control group at the start of administration.
Relative tumor volumes at each time point for each group were statistically analyzed and differences among groups were assessed based on the data. The statistical method used for testing was one-way ANOVA.

Data set [8] concerns the target EZH2 enzyme complex (Homo sapiens (Human), UniProt Q15910). Briefly: Test on EZH2 inhibitory activity (TR-FRET). In kind it is biochemical. The conditions noted are these: EZH2 enzyme complex 25 ng/uL, histone H3 peptide 4 uM, SAM 2 uM, 300 min; read-out: IC50 of EZH2 inhibition.
[9] abbreviates: single intravenous 5 mg/kg and intragastric 250 mg/kg study.
Setting [10] is: mouse, plasma, oral, single intravenous 5 mg/kg and intragastric 250 mg/kg study.
The mark [11] stands for this setting: mouse, plasma, oral, single intravenous 5 mg/kg and intragastric 250 mg/kg study, read-out: Cmax.
Setting [12] is: mouse, plasma, oral, single intravenous 5 mg/kg and intragastric 250 mg/kg study, read-out: Tmax.
Where [13] appears, read: mouse, plasma, single intravenous 5 mg/kg and intragastric 250 mg/kg study.
Where [14] appears, read: Homo sapiens, WSUDLCL2, 168 h, WSU-DLCL2, Day 7, read-out: IC50 WSU-DLCL2 proliferation Day 7.
The mark [15] stands for this setting: Homo sapiens, WSUDLCL2, 336 h, WSU-DLCL2, Day 14, read-out: IC50 WSU-DLCL2 proliferation Day 14.
Setting [16] is: Homo sapiens, 168 h, Day 7, read-out: IC50 Pfeiffer proliferation Day 7.
Where [17] appears, read: Homo sapiens, 336 h, Day 14, read-out: IC50 Pfeiffer proliferation Day 14.

Where two headings read alike, the source gives them in different places. Bounds are passed on as bounds.

EZH2 (Y641N), sequence (Q15910 whole entry Y641N): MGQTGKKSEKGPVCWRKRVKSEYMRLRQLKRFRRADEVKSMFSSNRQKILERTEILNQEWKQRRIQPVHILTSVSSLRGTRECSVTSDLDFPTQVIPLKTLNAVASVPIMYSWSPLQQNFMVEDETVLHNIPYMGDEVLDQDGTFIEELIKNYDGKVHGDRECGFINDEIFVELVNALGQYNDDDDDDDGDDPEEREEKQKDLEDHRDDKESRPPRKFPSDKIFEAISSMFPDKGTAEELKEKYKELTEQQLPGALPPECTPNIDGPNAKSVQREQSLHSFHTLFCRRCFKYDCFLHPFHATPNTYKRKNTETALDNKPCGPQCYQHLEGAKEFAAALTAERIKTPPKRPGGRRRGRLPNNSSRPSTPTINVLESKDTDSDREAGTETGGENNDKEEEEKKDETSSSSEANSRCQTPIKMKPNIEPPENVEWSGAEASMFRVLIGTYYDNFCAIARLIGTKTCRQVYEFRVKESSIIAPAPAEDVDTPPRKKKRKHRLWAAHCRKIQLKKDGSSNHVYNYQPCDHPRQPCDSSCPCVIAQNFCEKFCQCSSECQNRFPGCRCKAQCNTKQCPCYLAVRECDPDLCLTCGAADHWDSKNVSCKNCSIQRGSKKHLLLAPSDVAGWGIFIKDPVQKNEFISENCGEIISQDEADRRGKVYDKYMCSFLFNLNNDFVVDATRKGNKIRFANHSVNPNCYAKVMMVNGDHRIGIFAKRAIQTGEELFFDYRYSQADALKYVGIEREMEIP
EZH2 (Y641N), sequence (O75530 whole entry partner): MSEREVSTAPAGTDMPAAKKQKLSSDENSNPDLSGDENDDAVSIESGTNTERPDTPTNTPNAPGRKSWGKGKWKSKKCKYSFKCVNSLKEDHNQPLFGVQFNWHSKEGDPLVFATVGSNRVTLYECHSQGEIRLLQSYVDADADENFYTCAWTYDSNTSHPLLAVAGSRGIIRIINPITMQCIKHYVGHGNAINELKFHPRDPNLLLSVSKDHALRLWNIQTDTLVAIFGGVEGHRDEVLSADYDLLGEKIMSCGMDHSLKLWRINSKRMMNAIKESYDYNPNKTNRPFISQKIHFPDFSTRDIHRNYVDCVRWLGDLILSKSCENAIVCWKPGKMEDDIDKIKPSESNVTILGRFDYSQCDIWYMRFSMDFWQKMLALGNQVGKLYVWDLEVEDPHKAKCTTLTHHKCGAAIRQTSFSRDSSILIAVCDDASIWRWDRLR
EZH2 (Y641N), sequence (Q15022 whole entry partner): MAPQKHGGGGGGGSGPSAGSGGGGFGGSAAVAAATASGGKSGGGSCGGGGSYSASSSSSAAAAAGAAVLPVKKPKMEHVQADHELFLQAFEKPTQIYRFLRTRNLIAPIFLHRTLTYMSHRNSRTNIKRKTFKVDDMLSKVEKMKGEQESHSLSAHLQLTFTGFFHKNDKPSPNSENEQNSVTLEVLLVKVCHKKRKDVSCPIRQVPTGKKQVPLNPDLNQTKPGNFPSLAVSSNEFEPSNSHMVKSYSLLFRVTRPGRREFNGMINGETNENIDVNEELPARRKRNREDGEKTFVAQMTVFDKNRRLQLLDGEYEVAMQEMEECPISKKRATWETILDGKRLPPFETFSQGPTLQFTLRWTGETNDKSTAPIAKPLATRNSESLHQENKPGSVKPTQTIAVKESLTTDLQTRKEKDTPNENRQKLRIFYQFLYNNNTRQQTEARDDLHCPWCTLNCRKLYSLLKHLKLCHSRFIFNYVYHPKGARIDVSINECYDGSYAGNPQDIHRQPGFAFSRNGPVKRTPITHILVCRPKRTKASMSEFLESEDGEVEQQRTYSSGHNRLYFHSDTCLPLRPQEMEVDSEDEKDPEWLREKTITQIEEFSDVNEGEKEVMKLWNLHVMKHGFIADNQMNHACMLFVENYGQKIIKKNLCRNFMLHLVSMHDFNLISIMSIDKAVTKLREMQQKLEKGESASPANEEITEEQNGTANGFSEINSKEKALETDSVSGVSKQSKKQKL
EZH2 (wt), sequence (Q15910 whole entry): as the sequence (Q15910 whole entry Y641N) above, with N641Y counted along it
EZH2 (wt), sequence (O75530 whole entry partner): as the sequence (O75530 whole entry partner) above
EZH2 (wt), sequence (Q15022 whole entry partner): as the sequence (Q15022 whole entry partner) above
EZH2 (Y641F), sequence (Q15910 whole entry Y641F): as the sequence (Q15910 whole entry Y641N) above, with N641F counted along it
EZH2 (Y641F), sequence (O75530 whole entry partner): as the sequence (O75530 whole entry partner) above
EZH2 (Y641F), sequence (Q15022 whole entry partner): as the sequence (Q15022 whole entry partner) above
EZH2 enzyme complex, sequence (Q15910 whole entry): as the sequence (Q15910 whole entry Y641N) above, with N641Y counted along it
EZH2 enzyme complex, sequence (O75530 whole entry partner): as the sequence (O75530 whole entry partner) above
EZH2 enzyme complex, sequence (Q15022 whole entry partner): as the sequence (Q15022 whole entry partner) above

Usually AUC(0-inf) stands for total exposure, with the tail of the curve extrapolated. As a reminder, the Cmax is the maximum level reached in the sampled fluid or tissue. In general, Tmax refers to the time from dosing to the highest level. One may read the half-life as the time needed for the level to fall by half in the phase considered. For the compound `CCN(c1cc(O[C@H]2C[C@H](N3CCCCC3)C2)cc(C(=O)NCc2c(C)cc(C)[nH]c2=O)c1C)C1CCOCC1` [Example 92], the figures for the IC50 in data set [1], in data set [2] and in data set [3] were less than 0.51 nM, less than 0.51 nM and 0.52 nM, respectively. Moreover, the F in data set [4] was 48.6%. Moreover, the CL in data set [4] (setting [9]) was found to be 80.84 ± 5.78 mL/min/lg. Besides, the AUC(0-inf) in data set [4] (setting [10]) stood at 25200 ± 4540 ng·h/mL. Further, in data set [4] (setting [11]), the Cmax turned out to be 9440 ± 1000 ng/mL. For the same compound, the Tmax in data set [4] (setting [12]) amounted to 0.58 ± 0.38 h. This compound showed a half-life in data set [4] (setting [13]) of 2.03 ± 1.14 h.
`CCN(c1cc(O[C@H]2C[C@H](N3CCCCC3)C2)cc(C(=O)NCc2c(O)cc(C)[nH]c2=O)c1C)C1CCC(F)(F)CC1` [Example 94, 3-((4,4-difluorocyclohexyl)(ethyl)amino)-N-((4-hydroxy-6-methyl-2-oxo-1,2-dihydropyridin-3-yl)methyl)-2-methyl-5-(trans-3-(piperidin-1-yl)cyclobutoxy)benzamide]: the IC50 stood at 100 nM in data set [1], 123 nM in data set [2] and 145 nM in data set [3].
For orientation: TGI means the reduction of tumour growth relative to the control group. Take `CCN(c1cc(OC2CN(C)C2)cc(C(=O)NCc2c(C)cc(C)[nH]c2=O)c1C)C1CCC(N(C)C)CC1` (centres unmarked) [EPZ349, reference compound]: the IC50 in data set [5] (WSU-DLCL2, Day 7, read-out: IC50 WSU-DLCL2 proliferation Day 7) was 563 nM. Besides, in data set [5] (WSU-DLCL2, Day 14, read-out: IC50 WSU-DLCL2 proliferation Day 14), the IC50 was 110 nM. In data set [6] (Day 7, read-out: IC50 Pfeiffer proliferation Day 7), the IC50 was 104 nM. Also, in data set [6] (Day 14, read-out: IC50 Pfeiffer proliferation Day 14), the IC50 was 33 nM. Further, in data set [4], the F is 12.8%. In addition, in data set [4] (setting [9]), the “AUC0-∞” value is 3918 ± 1710 ng·h/mL, the CL is 149 ± 57.0 mL/min/lg, the Cmax came to 1485 ± 860 ng/mL and the T1/2 amounted to 2.19 ± 1.32 h. Further, in data set [4] (setting [9]), the Tmax is reported as 0.83 ± 0.29 h. In data set [7] (100 mg/kg p.o. QD 21 days), the TGI was found to be 22.39%.
Take `CCN(c1cc(O[C@H]2C[C@H](N3CCCCC3)C2)cc(C(=O)NCc2c(OC)cc(C)[nH]c2=O)c1C)C1CCC(F)(F)CC1` [Example 91, 3-((4,4-difluorocyclohexyl)(ethyl)amino)-N-((4-methoxy-6-methyl-2-oxo-1,2-dihydropyridin-3-yl)methyl)-2-methyl-5-(trans-3-(piperidin-1-yl)cyclobutoxy)benzamide]: the IC50 in data set [5] (setting [14]) was 24 nM; in data set [5] (setting [15]) it was 6 nM; in data set [6] (setting [16]), 6 nM; in data set [6] (setting [17]), 2 nM. In data set [4], this compound showed an F of 82.3%. Further, in data set [4] (setting [9]), the CL was 66.9 ± 3.70 mL/min/lg. In data set [4] (setting [10]), this compound displayed an AUC(0-inf) of 51600 ng·h/mL. Besides, the Cmax in data set [4] (setting [11]) worked out at 9350 ± 1900 ng/mL. In addition, the Tmax in data set [4] (setting [12]) came out at 1.67 ± 0.58 h. Moreover, the half-life in data set [4] (setting [13]) was 7.72 ± 3.14 h. Further, in data set [7] (50 mg/kg p.o. QD 21 days), the inhibition of tumour growth (TGI) is given as 89.39%.
As to `CCN(c1cc(O[C@H]2C[C@H](N3CCOCC3)C2)cc(C(=O)NCc2c(C)cc(C)[nH]c2=O)c1C)C1CCC(F)(F)CC1` [Example 63, 3-((4,4-difluorocyclohexyl)(ethyl)amino)-N-((4,6-dimethyl-2-oxo-1,2-dihydropyridin-3-yl)methyl)-2-methyl-5-(trans-3-morpholinocyclobutoxy)benzamide], in data set [8], the IC50 is 10 to 100 nM. The compound also registered a TGI in data set [7] (100 mg/kg p.o. QD 21 days) of 53.67%.
Take `CCN(c1cc(O[C@H]2C[C@H](N3CCCCC3)C2)cc(C(=O)NCc2c(C)cc(C)[nH]c2=O)c1C)C1CCC(F)(F)CC1` [Example 68, 3-((4,4-difluorocyclohexyl)(ethyl)amino)-N-((4,6-dimethyl-2-oxo-1,2-dihydropyridin-3-yl)methyl)-2-methyl-5-(trans-3-(piperidin-1-yl)cyclobutoxy)benzamide]: the IC50 in data set [5] (setting [14]) is 49 nM; in data set [5] (setting [15]) it was 12 nM; in data set [6] (setting [16]) it was 13 nM; in data set [6] (setting [17]), 4.6 nM. Also, in data set [4], the F worked out at 56.5%. For the same compound, the CL in data set [4] (setting [9]) turned out to be 27.1 ± 5.94 mL/min/lg. The compound also showed an AUC(0-inf) in data set [4] (setting [10]) of 89500 ng·h/mL. For the same compound, the Cmax in data set [4] (setting [11]) came to 9250 ± 181 ng/mL. In addition, in data set [4] (setting [12]), the Tmax was determined as 1.33 ± 0.58 h. This compound also showed a half-life in data set [4] (setting [13]) of 10.4 ± 8.53 h. In data set [7] (50 mg/kg p.o. QD 21 days), this compound had a TGI of 94.28%.
